Measurements: ChEMBL document CHEMBL6121034, “Expanding the Chemical Space of Reverse Fosmidomycin Analogs” (ACS Med Chem Lett, 2025)
pIC50: −log10 of the molar value. Converted amounts (≈) assume the structure as drawn.

What was measured:
[1] = target: T1, 1-deoxy-D-xylulose 5-phosphate reductoisomerase (Mycobacterium tuberculosis, UniProt P9WNS1); assay: Inhibition of recombinant Mycobacterium tuberculosis DXR extracted from Escherichia coli M15 using DXP as substrate by NADPH consumption based photometric assay
T1 sequence (P9WNS1 whole entry): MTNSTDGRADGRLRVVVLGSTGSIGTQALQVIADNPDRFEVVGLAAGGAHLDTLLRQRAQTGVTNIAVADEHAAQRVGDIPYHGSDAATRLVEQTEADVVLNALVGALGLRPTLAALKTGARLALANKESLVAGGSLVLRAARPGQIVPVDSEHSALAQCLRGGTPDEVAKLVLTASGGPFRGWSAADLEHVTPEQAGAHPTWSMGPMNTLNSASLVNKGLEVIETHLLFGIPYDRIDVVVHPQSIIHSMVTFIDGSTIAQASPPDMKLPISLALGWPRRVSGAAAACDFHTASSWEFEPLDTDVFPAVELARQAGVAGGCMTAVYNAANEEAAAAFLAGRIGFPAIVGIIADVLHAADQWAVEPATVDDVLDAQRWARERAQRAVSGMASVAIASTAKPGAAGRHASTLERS

[2] = target: T2, 1-deoxy-D-xylulose 5-phosphate reductoisomerase (Escherichia coli K-12, UniProt P45568); assay: Inhibition of recombinant Escherichia coli DXR extracted from Escherichia coli M15 using DXP as substrate by NADPH consumption based photometric assay
T2 sequence (P45568 whole entry): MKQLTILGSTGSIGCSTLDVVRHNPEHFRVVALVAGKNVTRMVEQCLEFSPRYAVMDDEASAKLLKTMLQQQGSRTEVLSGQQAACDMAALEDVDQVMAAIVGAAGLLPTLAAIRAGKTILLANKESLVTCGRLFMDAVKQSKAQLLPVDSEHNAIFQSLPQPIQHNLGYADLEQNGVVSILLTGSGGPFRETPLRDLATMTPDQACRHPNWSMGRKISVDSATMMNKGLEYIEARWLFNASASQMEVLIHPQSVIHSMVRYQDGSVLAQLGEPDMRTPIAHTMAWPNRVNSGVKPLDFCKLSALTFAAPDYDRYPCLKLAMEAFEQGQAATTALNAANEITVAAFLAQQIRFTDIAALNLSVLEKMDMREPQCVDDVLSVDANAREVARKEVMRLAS

[3] = target: T3, 1-deoxy-D-xylulose 5-phosphate reductoisomerase, apicoplastic (Plasmodium falciparum (isolate 3D7), UniProt Q8IKG4); assay: Inhibition of Plasmodium falciparum DXR extracted from Escherichia coli using DXP as substrate by NADPH consumption based photometric assay
T3 sequence (Q8IKG4 whole entry): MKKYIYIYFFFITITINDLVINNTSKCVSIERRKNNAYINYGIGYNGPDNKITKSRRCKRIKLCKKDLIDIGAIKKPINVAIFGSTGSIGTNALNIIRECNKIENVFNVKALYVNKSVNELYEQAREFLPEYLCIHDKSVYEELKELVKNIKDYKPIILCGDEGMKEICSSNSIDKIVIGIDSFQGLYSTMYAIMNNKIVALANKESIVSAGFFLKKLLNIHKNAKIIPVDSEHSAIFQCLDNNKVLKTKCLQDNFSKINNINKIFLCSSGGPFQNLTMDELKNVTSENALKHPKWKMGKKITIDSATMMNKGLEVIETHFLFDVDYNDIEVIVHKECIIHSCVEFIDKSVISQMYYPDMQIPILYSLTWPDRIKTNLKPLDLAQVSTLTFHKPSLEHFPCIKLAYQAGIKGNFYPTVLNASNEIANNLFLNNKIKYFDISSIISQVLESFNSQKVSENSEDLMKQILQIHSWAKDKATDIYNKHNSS

[4] = system: Mycobacterium tuberculosis; assay: Antibacterial activity against wild-type Mycobacterium tuberculosis H37Rv incubated for 5 days by CLSI based broth microdilution assay; assay type: functional; settings: 120 h, time 5 day
Escherichia coli [5] = assay: Antibacterial activity against Escherichia coli ATCC 25922 […] by CLSI based broth microdilution assay; assay type: functional
Plasmodium falciparum [6] = assay: Antiparasitic activity against CQ-sensitive Plasmodium falciparum 3D7 at asexual stage infected in O Rh+ erythrocytes by ELISA; assay type: functional, organism-based; settings: 3D7, Erythrocyte
[7] = Selectivity ratio of IC50 for antiparasitic activity against CQ-sensitive Plasmodium falciparum 3D7 at asexual stage infected in O Rh+ erythrocytes to IC50 for inhibition of Plasmodium falciparum DXR extracted from Escherichia coli
Plasmodium falciparum [8] = assay: Antiparasitic activity against multidrug-resistant Plasmodium falciparum Dd2 at asexual stage infected in O Rh+ erythrocytes by ELISA method; assay type: functional, organism-based; settings: Dd2, Erythrocyte
[9] = Selectivity ratio of IC50 for antiparasitic activity against multidrug-resistant Plasmodium falciparum Dd2 at asexual stage infected in O Rh+ erythrocytes to IC50 for inhibition of Plasmodium falciparum DXR extracted from Escherichia coli
Escherichia coli [10] = assay: Antibacterial activity against Escherichia coli incubated for 20 hrs; assay type: functional

CN(O)C(=O)CSC(c1cccc(OCCCCCCN2C(=O)c3ccccc3C2=O)c1)P(=O)(O)O (racemic)
pIC50 [1]: 5.77
pIC50 [2]: 7.17
pIC50 [3]: 7.01
MIC [4]: > 100 µM
MIC (Escherichia coli [5]): > 100 µM
pIC50 (Plasmodium falciparum [6]): < 4.92
Ratio IC50 [7]: >120
pIC50 (Plasmodium falciparum [8]): 5.01
Ratio IC50 [9]: 100

CN(O)C(=O)CSC(c1ccc(OCCCCCCN2C(=O)c3ccccc3C2=O)cc1)P(=O)(O)O (racemic)
pIC50 [1]: 6.80
pIC50 [2]: 7.89
pIC50 [3]: 7.68
MIC [4]: > 100 µM
MIC (Escherichia coli [5]): > 100 µM
pIC50 (Plasmodium falciparum [6]): 5.59
Ratio IC50 [7]: 120
pIC50 (Plasmodium falciparum [8]): 5.72
Ratio IC50 [9]: 90

CCCCCCOc1ccc(C(SCC(=O)N(C)O)P(=O)(O)O)cc1 (racemic)
pIC50 [1]: 7.04
pIC50 [2]: 7.77
pIC50 [3]: 7.32
MIC [4]: > 100 µM
MIC (Escherichia coli [5]): > 100 µM
pIC50 (Plasmodium falciparum [6]): 5.10
Ratio IC50 [7]: 170
pIC50 (Plasmodium falciparum [8]): 5.24
Ratio IC50 [9]: 120

O=CN(O)CCCP(=O)(O)O [FOSMIDOMYCIN]
MIC (Escherichia coli [10]): 6.25 µM (≈ 1.14 µg/mL)
